The EC50 is the concentration at which the effect is half-maximal. Low readings indicate greater potency, high ones weaker potency. The term IC50 denotes the point on the concentration scale where inhibition reaches its midpoint. Low values mean inhibition by little substance, high ones a need for much substance.

A value given as a limit tells only on which side of the number the result lay.

For experiment [1], the target named is T1, Beta-2 adrenergic receptor (Homo sapiens, UniProt P07550). The experiment is described as follows: In vitro agonist activity measured by increase in cAMP levels in chinese hamster ovary cells (CHO) cells expressing human Beta-2 adrenergic receptor. It counts as functional, cell-based. Background: cAMP levels reflect the balance of adenylyl cyclase and phosphodiesterase activity.
T1 sequence (P07550 whole entry): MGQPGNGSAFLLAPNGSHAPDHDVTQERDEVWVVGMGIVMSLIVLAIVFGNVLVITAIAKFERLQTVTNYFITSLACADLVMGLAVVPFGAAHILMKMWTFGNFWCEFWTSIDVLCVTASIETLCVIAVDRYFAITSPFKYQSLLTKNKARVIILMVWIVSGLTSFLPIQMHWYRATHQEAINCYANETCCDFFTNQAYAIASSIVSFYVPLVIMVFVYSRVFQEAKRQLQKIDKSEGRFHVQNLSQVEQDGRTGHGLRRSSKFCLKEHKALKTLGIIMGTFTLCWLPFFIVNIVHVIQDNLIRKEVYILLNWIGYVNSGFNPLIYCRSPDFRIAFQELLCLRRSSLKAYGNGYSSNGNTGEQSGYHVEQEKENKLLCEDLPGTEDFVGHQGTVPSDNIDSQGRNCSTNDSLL

Experiment [2] deals with T2, Beta-1 adrenergic receptor (Homo sapiens, UniProt P08588). The experiment is described as follows: In vitro agonist activity measured by increase in cAMP levels in chinese hamster ovary cells (CHO) cells expressing human Beta-1 adrenergic receptor. It is filed as functional, cell-based.
Target sequence in this assay (P08588 whole entry): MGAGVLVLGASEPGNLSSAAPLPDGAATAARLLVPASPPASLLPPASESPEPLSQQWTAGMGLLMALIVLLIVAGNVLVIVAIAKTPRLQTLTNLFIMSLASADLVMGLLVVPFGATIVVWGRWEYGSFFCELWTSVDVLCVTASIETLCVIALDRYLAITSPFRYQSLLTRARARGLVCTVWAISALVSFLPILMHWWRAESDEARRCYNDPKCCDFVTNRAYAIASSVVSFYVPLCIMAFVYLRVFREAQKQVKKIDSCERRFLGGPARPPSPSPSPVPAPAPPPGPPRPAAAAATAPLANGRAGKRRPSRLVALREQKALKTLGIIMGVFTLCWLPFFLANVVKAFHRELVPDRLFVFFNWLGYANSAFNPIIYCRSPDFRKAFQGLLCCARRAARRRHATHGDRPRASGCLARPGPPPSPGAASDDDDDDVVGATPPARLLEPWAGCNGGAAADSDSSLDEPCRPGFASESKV
The target in experiment [3] is T2, Beta-1 adrenergic receptor. The experiment is described as follows: Compound was tested for the antagonistic activity against Beta-1 adrenergic receptor. It counts as functional.
Target sequence in this assay (P08588 whole entry): as above
Experiment [4] has as its target T1, Beta-2 adrenergic receptor. The experiment is described as follows: (§1) Compound was tested for the antagonistic activity against Beta-2 adrenergic receptor.
Experiment [5] relates to Mus musculus. The experiment is described as follows: In vivo activity of compound with an increase in thermogenesis in the Beta 3 transgenic mice at an ip dose of 10 mg/kg was determined. It is filed as functional. The settings on record: route intraperitoneal.
Experiment [6] has as its target T2, Beta-1 adrenergic receptor. Description: Intrinsic activity (IA) for Beta-1 adrenoceptor agonism was determined as the maximal response with respect to the maximal response of isoproterenol at […]. It is filed as functional.
Target sequence in this assay (P08588 whole entry, looked up): as the sequence (P08588 whole entry) above
The target in experiment [7] is T1, Beta-2 adrenergic receptor. The experiment is described as follows: In vitro agonist activity by increase in cAMP levels in chinese hamster ovary cells (CHO) cells stimulated by human Beta-2 Adrenoceptor. It counts as functional, cell-based.
Experiment [8] deals with T3, Beta-3 adrenergic receptor (Homo sapiens, UniProt P13945). Description: Intrinsic activity (IA) for Beta-3 adrenoceptor agonism was determined as the maximal response with respect to the maximal response of isoproterenol at […]. It is filed as functional.
Target sequence in this assay (P13945 whole entry, looked up): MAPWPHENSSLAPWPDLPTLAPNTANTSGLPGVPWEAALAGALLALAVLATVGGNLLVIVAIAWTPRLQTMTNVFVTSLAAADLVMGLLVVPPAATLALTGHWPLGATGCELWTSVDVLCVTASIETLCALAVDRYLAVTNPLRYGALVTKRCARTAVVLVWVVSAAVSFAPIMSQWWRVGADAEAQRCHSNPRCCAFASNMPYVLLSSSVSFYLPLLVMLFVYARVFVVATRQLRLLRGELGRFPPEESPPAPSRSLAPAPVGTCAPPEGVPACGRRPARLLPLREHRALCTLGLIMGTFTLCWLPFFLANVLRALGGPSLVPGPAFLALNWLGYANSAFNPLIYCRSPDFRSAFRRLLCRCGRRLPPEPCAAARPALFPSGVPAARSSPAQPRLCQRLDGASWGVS
The target in experiment [9] is T2, Beta-1 adrenergic receptor. Description: In vitro agonist activity by increase in cAMP levels in chinese hamster ovary cells (CHO) cells stimulated by human Beta-1 Adrenoceptor was determined. It is filed as functional, cell-based.
Target sequence in this assay (P08588 whole entry): as the sequence (P08588 whole entry) above
The target in experiment [10] is T3, Beta-3 adrenergic receptor. Description: In vitro agonist activity by increase in cAMP levels in chinese hamster ovary cells (CHO) cells stimulated by human Beta-3 Adrenoceptor was determined. It is filed as functional, cell-based.
Target sequence in this assay (P13945 whole entry): as the sequence (P13945 whole entry, looked up) above
Experiment [11] concerns the target T3, Beta-3 adrenergic receptor. Description: In vitro agonist activity by increase in cAMP levels in chinese hamster ovary cells (CHO) cells stimulated by human Beta-3 adrenergic receptor was determined; IA is inactive. It is filed as functional, cell-based.
Target sequence in this assay (P13945 whole entry): as the sequence (P13945 whole entry, looked up) above
The target of experiment [12] is T3, Beta-3 adrenergic receptor. Description: Intrinsic activity (IA) for Beta-3 adrenergic receptor agonism was determined as the maximal response with respect to the maximal response of isoproterenol at […].
Target sequence in this assay (P13945 whole entry, looked up): as above
Experiment [13] concerns the target T1, Beta-2 adrenergic receptor. Described as §1. It counts as functional.

`O[C@@H](CNCC1CCN(CCC(F)(F)F)CC1)COc1cccc2[nH]c3ccccc3c12`: the EC50 in experiment [1] was more than 1000 nM; in experiment [2], 417 nM.
For the compound `CCCCCCCCNC(=O)Nc1ccc(S(=O)(=O)N2CCC(CNC[C@H](O)COc3ccc(O)cc3)CC2)cc1`, the IC50 was 27 nM in experiment [3] and 4 nM in experiment [4]. In [5], this compound returned a Thermogenesis of 30. The EC50 in experiment [2] worked out at 887 nM.
For `CCCCCCNC(=O)Nc1ccc(S(=O)(=O)N2CCC(CNC[C@H](O)COc3cccc4[nH]c5ccccc5c34)CC2)cc1`, the EC50 in [1] and in experiment [2] was more than 1000 nM each time.
`O=C(NCc1cc(F)ccc1F)Nc1ccc(S(=O)(=O)N2CCC(CNC[C@H](O)COc3ccc(O)cc3)CC2)cc1` came in with an EC50 in experiment [2] of 1010 nM.
The compound `CCCCCCNC(=O)Nc1ccc(S(=O)(=O)N2CCC(CNC[C@H](O)COc3ccc(O)cc3)CC2)cc1` showed an EC50 in experiment [2] of 10900 nM.
The same measure, in the same setting: next, `O=C(NCCCc1cccs1)Nc1ccc(S(=O)(=O)N2CCC(CNC[C@H](O)COc3ccc(O)cc3)CC2)cc1`: 2050 nM.
With `CCCCCCCCNC(=O)Nc1ccc(S(=O)(=O)N2CCC(CNC[C@H](O)COc3ccc(O)c4c3CCC(=O)N4)CC2)cc1`, the Intrinsic activity in experiment [6] came to 0.63. Also, the half-maximal effective concentration (EC50) in experiment [1] worked out at 680 nM; in experiment [2], 390 nM.
`O=C(Nc1ccccc1)Nc1ccc(S(=O)(=O)N2CCC(CNC[C@H](O)COc3ccc(O)cc3)CC2)cc1` returned an EC50 in [2] of 489 nM.
As for `O=C(O)c1cccc(NC(=O)N2CCC(CNC[C@H](O)COc3cccc4[nH]c5ccccc5c34)CC2)c1`, the EC50 in [7] was more than 1000 nM; in experiment [9] it was more than 1000 nM; in experiment [10], 70 nM. Moreover, the results for the Intrinsic activity in [8] and in experiment [6] were 0.29 and 0.05, respectively.
For `O[C@@H](CNCC1CCN(c2ncccc2C(F)(F)F)CC1)COc1cccc2[nH]c3ccccc3c12`, the EC50 entry in [11] and in experiment [12] was “Not Active” each time.
Consider `O=C(NCc1cc(F)ccc1F)Nc1ccc(S(=O)(=O)N2CCC(CNC[C@H](O)COc3ccc(O)c(F)c3)CC2)cc1`, for which the EC50 in experiment [2] amounted to 525 nM.
With `CCCCCCN1CCC(CNC[C@H](O)COc2cccc3[nH]c4ccccc4c23)CC1`, the EC50 in experiment [1] and in experiment [2] was more than 1000 nM in each case.
Turning to `O=C(Nc1ccc(S(=O)(=O)N2CCC(CNC[C@H](O)COc3ccc(O)cc3)CC2)cc1)NC1CCCCC1`, the EC50 in [2] amounted to 1020 nM.
`CS(=O)(=O)Nc1cc(OC[C@@H](O)CNCC2CCN(S(=O)(=O)c3ccc(NC(=O)NCc4cc(F)ccc4F)cc3)CC2)ccc1O` yielded an Intrinsic activity in experiment [6] of 0.49. The IC50 in experiment [13] worked out at 268 nM; in [3], 6160 nM. In addition, the EC50 in [1] came to 454 nM; in [2], 353 nM. This compound also registered a Thermogenesis in experiment [5] of 18.

The values are drawn from ChEMBL document CHEMBL1134913, “Novel substituted 4-aminomethylpiperidines as potent and selective human beta3-agonists. Part 1: aryloxypropanolaminomethylpiperidines” (Bioorg Med Chem Lett, 2002).
